Measurements published in patent US11578009B2, “Urea-based blend composition and method for the manufacture thereof” (YARA INTERNATIONAL ASA, priority 2018, dated 2023).

Experiments:
[1] = nBTPT stability on YaraVera Amidas (UAS) during storage, HPLC analysis of nBTPT content; type: physicochemical; settings: for Stabilizing effect on nBTPT on UAS: Experiment 4, MgSO4/MgO combinations, FIG. 4
Description: For lab scale experiments, 1.2 kg of solid fertilizer material was added to a lab scale drum. […] A residence time of 10 minutes was applied and the rotating speed of the drum was consequently the same in each experiment. […] Before use, the moisture-repellent coating was preheated to 80° C. Larger scale experiments with amounts up to 40 kg of fertilizer material were performed in a concrete mixer. The samples were stored under several conditions, dependent on the type of samples: • Bagged at room temperature (18-25° C.) • Bagged at 40° C. • Open to air at room temperature (18-25° C.) 3.

pH of MgSO4 grades = type: physicochemical; settings: MgSO4 grade

SMILES | Stabilizing effect on nBTPT on UAS ([1]; 462 ppm nBTPT) | pH (pH of MgSO4 grades) | also measured
[O]=[Mg] [MgO, magnesium oxide, reference compound] | more effective than CaO |  | 
O=S(=O)([O-])[O-].[Mg+2] [MgSO4, magnesium sulphate] | little effect |  | Stabilizing effect on nBTPT in the presence of UAS ([1]; Experiment 2, open to air at room temperature 40 days (FIG. 2A) and in bags at 40° C. 8 days (FIG. 2B), 462 ppm nBTPT): comparable with the effect of the prior art compound (CaO); Stabilizing effect at more than 1 weight % of magnesium sulphate ([1]; more than 1 weight % in the composition): did not produce a proportionally better stabilizing effect
O=S(=O)([O-])[O-].[Na+].[Na+] [Na2SO4, reference compound] |  |  | Stability of nBTPT on YaraVera Amidas product ([1]; Experiment 3, open plastic containers at room temperature for 21 days, 462 ppm nBTPT, FIG. 3): negative effect
O=S(=O)([O-])[O-].[Mg+2] [MgSO4 99.999%] |  | 6.1 | 
O=S(=O)([O-])[O-].[Mg+2] [MgSO4 99.5%] |  | 8.5 | 
